Measurements: the NIST ThermoML archive (doi:10.1016/j.tca.2012.01.013)

Experiment: refractive index (Na D-line) (dimensionless); xn = mol fraction of the nth substance listed
Conditions: 101 kPa, Liquid, Standard Abbe refractometry

COC(=O)c1ccccc1C(=O)OC [dimethyl 1,2-benzenedicarboxylate] + CCC(C)=O
refractive index
Conditions | x1 = 0.1002 | x1 = 0.2001 | x1 = 0.3002 | x1 = 0.3997 | x1 = 0.4982 | x1 = 0.6001 | x1 = 0.6993 | x1 = 0.7993 | x1 = 0.9002 | x1 = 1
288.15 K | 1.40705 | 1.42733 | 1.44555 | 1.46042 | 1.47261 | 1.48425 | 1.49362 | 1.50271 | 1.51071 | 1.51779
293.15 K | 1.40471 | 1.42489 | 1.44315 | 1.45808 | 1.4703 | 1.48198 | 1.49141 | 1.50053 | 1.50855 | 1.51565
298.15 K | 1.40224 | 1.42243 | 1.44075 | 1.45576 | 1.46801 | 1.47972 | 1.48918 | 1.49835 | 1.5064 | 1.51354
303.15 K | 1.39965 | 1.41998 | 1.43839 | 1.45342 | 1.4657 | 1.47746 | 1.48696 | 1.49618 | 1.50426 | 1.51146
308.15 K | 1.39705 | 1.41752 | 1.4359 | 1.45091 | 1.46339 | 1.4752 | 1.48475 | 1.49399 | 1.50211 | 1.50943
313.15 K | 1.3943 | 1.41502 | 1.43328 | 1.44834 | 1.46101 | 1.47289 | 1.48252 | 1.49187 | 1.50006 | 1.50736
318.15 K | 1.39158 | 1.4124 | 1.43077 | 1.44591 | 1.45864 | 1.47061 | 1.48032 | 1.48973 | 1.49796 | 1.50524
323.15 K | 1.38878 | 1.40956 | 1.42768 | 1.44306 | 1.45602 | 1.4681 | 1.47795 | 1.48748 | 1.49582 | 1.5032
